Laboratory results as given in PMC11586411 (Translational Psychiatry, 2023).

Target: T1, kappa-opioid receptor (KOP) (Homo sapiens, UniProt P41145)
T1 construct: gene OPRK1
Assay: FLIM in live cells: blocks the dynorphin A-induced change of KOP-eGFP lifetime
Format: cell-based

T1 sequence (P41145 whole entry): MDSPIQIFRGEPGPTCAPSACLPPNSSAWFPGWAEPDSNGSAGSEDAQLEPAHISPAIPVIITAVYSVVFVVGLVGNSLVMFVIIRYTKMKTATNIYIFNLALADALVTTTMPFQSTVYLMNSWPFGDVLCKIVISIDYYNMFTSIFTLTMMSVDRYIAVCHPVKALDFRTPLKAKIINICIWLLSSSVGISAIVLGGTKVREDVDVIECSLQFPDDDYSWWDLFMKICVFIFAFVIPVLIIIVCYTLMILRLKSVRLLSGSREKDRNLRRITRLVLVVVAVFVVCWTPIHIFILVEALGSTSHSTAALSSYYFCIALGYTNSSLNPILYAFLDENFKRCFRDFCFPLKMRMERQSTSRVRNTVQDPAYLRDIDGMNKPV

CC(C)[C@@H](CN1CC[C@@](C)(c2cccc(O)c2)[C@@H](C)C1)NC(=O)[C@H]1Cc2ccc(O)cc2CN1 [JDTic]
FLIM in live cells: blocks the dynorphin A-induced change of KOP-eGFP lifetime: both NTX and the KOP-selective antagonist JDTic blocked this effect, suggesting that DynA binds to KOP-eGFP
